# Results taken from the supplement of paper PMC10307832.
# Tests used:
# Assay in all cases: relative viability (nuclei count vs DMSO), 5 days (fraction); higher = more cells survive
# RAF265 + Luminespib = compound: Cn1c(Nc2ccc(C(F)(F)F)cc2)nc2cc(Oc3ccnc(-c4ncc(C(F)(F)F)[nH]4)c3)ccc21 [RAF265] + CCNC(=O)c1noc(-c2cc(C(C)C)c(O)cc2O)c1-c1ccc(CN2CCOCC2)cc1 [Luminespib] (partner 0.01 µM)
# Method in brief: (§1)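 Medians of duplicate plates are given as relative viability. That measure is the nuclei count in treated wells divided by the count in vehicle wells. Counts were taken on 4× images of lung cancer cell lines in 1536-well plates, 5 days after pin-tool dosing the day after seeding with one drug alone or a fixed anchor-drug dose plus five library-drug doses (not always all listed) in √10 steps.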
# RAF265 + Palbociclib = compound: Cn1c(Nc2ccc(C(F)(F)F)cc2)nc2cc(Oc3ccnc(-c4ncc(C(F)(F)F)[nH]4)c3)ccc21 [RAF265] + CC(=O)c1c(C)c2cnc(Nc3ccc(N4CCNCC4)cn3)nc2n(C2CCCC2)c1=O [Palbociclib] (partner 0.5 µM)
# Method in brief: as §1
# Doramapimod + Navitoclax = compound: Cc1ccc(-n2nc(C(C)(C)C)cc2NC(=O)Nc2ccc(OCCN3CCOCC3)c3ccccc23)cc1 [Doramapimod] + CC1(C)CCC(c2ccc(Cl)cc2)=C(CN2CCN(c3ccc(C(=O)NS(=O)(=O)c4ccc(N[C@H](CCN5CCOCC5)CSc5ccccc5)c(S(=O)(=O)C(F)(F)F)c4)cc3)CC2)C1 [Navitoclax] (partner 0.5 µM)
# Method in brief: as §1
# RAF265 + Lapatinib = compound: Cn1c(Nc2ccc(C(F)(F)F)cc2)nc2cc(Oc3ccnc(-c4ncc(C(F)(F)F)[nH]4)c3)ccc21 [RAF265] + CS(=O)(=O)CCNCc1ccc(-c2ccc3ncnc(Nc4ccc(OCc5cccc(F)c5)c(Cl)c4)c3c2)o1 [Lapatinib] (partner 2 µM)
# Method in brief: as §1
Cell Line,relative viability (RAF265 + Luminespib; first compound 0.01 µM),relative viability (RAF265 + Luminespib; first compound 0.03162 µM),relative viability (RAF265 + Luminespib; first compound 0.1 µM),relative viability (RAF265 + Luminespib; first compound 0.3162 µM),relative viability (RAF265 + Luminespib; first compound 1 µM),relative viability (RAF265 + Palbociclib; first compound 0.01 µM),relative viability (RAF265 + Palbociclib; first compound 0.03162 µM),relative viability (RAF265 + Palbociclib; first compound 0.1 µM),relative viability (RAF265 + Palbociclib; first compound 0.3162 µM),relative viability (RAF265 + Palbociclib; first compound 1 µM),relative viability (Doramapimod + Navitoclax; first compound 0.02 µM),relative viability (Doramapimod + Navitoclax; first compound 0.06325 µM),relative viability (Doramapimod + Navitoclax; first compound 0.2 µM),relative viability (Doramapimod + Navitoclax; first compound 0.6325 µM),relative viability (Doramapimod + Navitoclax; first compound 2 µM),relative viability (RAF265 + Lapatinib; first compound 0.01 µM),relative viability (RAF265 + Lapatinib; first compound 0.03162 µM),relative viability (RAF265 + Lapatinib; first compound 0.1 µM),relative viability (RAF265 + Lapatinib; first compound 0.3162 µM),relative viability (RAF265 + Lapatinib; first compound 1 µM)
LU99A,0.262,0.194,0.229,0.182,0.202,0.366,0.35,0.325,0.217,0.144,0.662,0.645,0.818,0.977,0.798,1.02,0.838,0.61,0.496,0.324
LXF-289,0.736,0.6,0.699,0.534,0.357,0.622,0.615,0.625,0.498,0.313,0.954,1,0.939,0.903,0.942,0.942,0.953,0.858,0.785,0.743
NCI-H23,0.22,0.225,0.221,0.212,0.221,0.499,0.342,0.304,0.262,0.206,0.905,0.794,0.763,0.882,0.832,1.2,0.87,0.75,0.545,0.409
NCI-H322M,0.868,0.722,0.545,0.305,0.304,0.474,0.498,0.425,0.381,0.326,1.12,1.16,1.16,1.33,1.2,0.579,0.529,0.481,0.342,0.258
NCI-H460,0.0219,0.0359,0.0291,0.0265,0.0248,0.203,0.203,0.171,0.2,0.0711,1.12,1.01,1.14,1.13,1.01,1.01,0.934,0.853,–,0.646
NCI-H520,0.211,0.232,0.235,0.208,0.215,0.264,0.218,0.239,0.191,0.155,1,1.11,1.08,1.18,1.02,0.894,0.873,0.776,0.694,0.498
NCI-H647,0.256,0.103,0.171,0.153,0.0987,0.335,0.401,0.196,0.228,0.218,1.09,1.13,1.12,1.09,1.12,1.19,0.937,0.828,0.711,0.809
NCI-H727,0.332,0.345,0.6,0.383,0.263,0.684,0.626,0.692,0.611,0.602,0.467,0.337,0.501,0.481,0.382,0.915,0.736,0.963,1.1,0.371
NCI-H838,0.284,0.226,0.344,0.309,0.288,0.203,0.222,0.193,0.176,0.154,1.16,1.19,1.26,1.32,1.12,1.02,0.927,0.972,0.971,0.885
NCI-H1355,0.705,0.726,0.747,0.411,0.246,0.449,0.364,0.328,0.248,0.181,0.943,0.947,0.956,0.923,0.867,1.07,0.969,0.842,0.85,0.596
NCI-H1395,0.633,0.726,0.7,0.658,0.509,0.634,0.56,0.567,0.597,0.437,1.17,1.12,1.1,1.12,1.06,1.41,0.943,0.957,0.942,0.912
NCI-H1437,1.02,1.07,1.08,1.23,1.11,0.318,0.315,0.305,0.366,0.306,1.09,1.1,1.16,1.09,1.05,0.897,0.776,0.77,0.784,0.78
NCI-H1650,0.176,0.208,0.192,0.205,0.216,0.385,0.319,0.418,0.278,0.277,1.09,1.2,1.23,1.63,1.2,0.844,0.749,0.874,0.325,0.637
NCI-H1651,1,0.812,0.971,0.807,0.714,0.508,0.517,0.504,0.479,0.47,0.624,0.911,0.996,1.04,1.06,0.931,0.797,0.864,0.669,0.644
NCI-H1666,1.11,1.01,1.1,1.05,0.977,0.612,0.577,0.595,0.663,0.585,0.991,0.838,1.04,0.918,0.789,1.06,0.629,0.856,0.791,0.53
NCI-H1734,0.227,0.189,0.178,0.17,0.17,0.384,0.319,0.324,0.286,0.221,0.723,0.799,0.692,0.77,0.572,1.08,0.854,0.866,0.806,0.485

Cell Line,relative viability (RAF265 + Luminespib; first compound 0.01 µM),relative viability (RAF265 + Luminespib; first compound 0.03162 µM),relative viability (RAF265 + Luminespib; first compound 0.1 µM),relative viability (RAF265 + Luminespib; first compound 0.3162 µM),relative viability (RAF265 + Luminespib; first compound 1 µM),relative viability (RAF265 + Palbociclib; first compound 0.01 µM),relative viability (RAF265 + Palbociclib; first compound 0.03162 µM),relative viability (RAF265 + Palbociclib; first compound 0.1 µM),relative viability (RAF265 + Palbociclib; first compound 0.3162 µM),relative viability (RAF265 + Palbociclib; first compound 1 µM),relative viability (Doramapimod + Navitoclax; first compound 0.02 µM),relative viability (Doramapimod + Navitoclax; first compound 0.06325 µM),relative viability (Doramapimod + Navitoclax; first compound 0.2 µM),relative viability (Doramapimod + Navitoclax; first compound 0.6325 µM),relative viability (Doramapimod + Navitoclax; first compound 2 µM),relative viability (RAF265 + Lapatinib; first compound 0.01 µM),relative viability (RAF265 + Lapatinib; first compound 0.03162 µM),relative viability (RAF265 + Lapatinib; first compound 0.1 µM),relative viability (RAF265 + Lapatinib; first compound 0.3162 µM),relative viability (RAF265 + Lapatinib; first compound 1 µM)
NCI-H1755,0.627,0.45,0.351,0.262,0.398,0.385,0.445,0.462,0.414,0.309,0.997,1,1,1.06,0.968,1.06,1.06,1.03,0.974,0.622
NCI-H1792,0.46,0.528,0.379,0.317,0.148,0.658,0.676,0.758,0.474,0.298,0.601,0.809,0.672,0.617,0.577,0.928,0.843,0.946,0.913,0.593
NCI-H1793,0.212,0.147,0.184,–,0.222,0.309,0.274,0.218,0.213,0.195,0.545,0.303,0.378,0.416,0.502,0.652,0.658,0.631,0.296,0.512
NCI-H1915,0.819,0.728,0.616,0.258,0.188,0.525,0.435,0.438,0.236,0.147,0.843,0.838,0.85,0.801,0.761,0.968,0.92,0.909,0.715,0.371
NCI-H1944,0.858,0.71,0.726,0.529,0.332,0.356,0.367,0.291,0.261,0.185,1,1.11,1.05,1.17,1.08,0.79,0.966,0.924,0.75,0.562
NCI-H1975,0.244,0.272,0.199,0.197,0.12,0.609,0.396,0.263,0.184,0.182,1.2,1.19,0.991,1.16,0.981,0.809,0.791,0.618,0.469,0.412
NCI-H1993,0.852,0.75,0.9,1.42,0.774,0.584,0.595,0.661,0.575,0.507,0.952,0.749,0.966,0.918,0.834,0.789,0.833,0.995,0.908,0.967
NCI-H2009,1.05,0.95,0.975,1.03,0.883,0.264,0.224,0.162,0.17,0.144,1.25,1.18,1.2,1.29,1.19,1.01,0.941,0.85,0.885,0.691
NCI-H2023,0.802,0.78,0.674,0.837,0.454,0.411,0.34,0.37,0.291,0.268,1.09,1.08,0.892,1,0.948,0.905,0.77,1.13,0.579,0.727
NCI-H2085,0.493,0.403,0.492,0.428,0.427,0.49,0.477,0.483,0.506,0.52,1.22,1.05,1.07,1.3,1.2,0.777,0.709,0.806,0.843,0.717
NCI-H2087,0.136,0.209,0.214,0.162,0.16,0.238,0.207,0.181,0.164,0.159,0.955,0.98,0.933,1.1,0.888,0.964,0.874,0.837,0.833,0.684
NCI-H2126,0.918,0.87,0.908,0.628,0.654,0.373,0.354,0.377,0.361,0.365,0.791,0.843,0.743,0.881,0.738,0.765,0.732,0.718,0.756,0.662
NCI-H2170,0.791,0.658,0.688,0.254,0.381,0.398,0.295,0.354,0.26,0.295,0.512,0.495,0.539,0.601,0.478,0.278,0.306,0.284,0.296,0.287
NCI-H2228,0.191,0.118,0.186,0.126,0.0971,0.721,0.73,0.818,0.333,0.284,0.669,0.786,1.05,0.913,0.605,1.25,0.859,1.24,0.416,0.43
NCI-H2347,0.445,0.775,0.849,0.337,0.234,0.485,0.405,0.406,0.391,0.363,0.947,0.726,0.793,0.761,0.821,1.1,0.915,0.998,0.887,0.435
